According to ChEMBL document CHEMBL3885881, “DrugMatrix”:

Species: Rattus norvegicus
Assay: DrugMatrix - Regimen: Daily Repeat
Format: toxicity, organism-based, Sprague-Dawley
Design: regimen Daily Repeat, gender Male, age 6-8 weeks
Settings: in vivo, po, route oral GAVAGE, vehicle .5 % CMC; for BASOPHIL / EOSINOPHIL / ERYTHROCYTE COUNT / HEMATOCRIT / HEMOGLOBIN / LEUKOCYTE COUNT / LYMPHOCYTE / MEAN CORPUSCULAR HEMOGLOBIN / MEAN CORPUSCULAR HEMOGLOBIN CONCENTRATION / MEAN CORPUSCULAR VOLUME / MONOCYTE / NEUTROPHIL / PLATELET COUNT: tissue Blood; for ALANINE AMINOTRANSFERASE / ALBUMIN / ALKALINE PHOSPHATASE / ASPARTATE AMINOTRANSFERASE / BLOOD UREA NITROGEN / CHLORIDE / CHOLESTEROL / CREATINE PHOSPHOKINASE / CREATININE / GLUCOSE / PHOSPHORUS / POTASSIUM / SODIUM / TOTAL BILIRUBIN / TOTAL PROTEIN: tissue Plasma
[1] = 0 mg/kg, 72 h, dose level Control, time 3 day
[2] = 0 mg/kg, 120 h, dose level Control, time 5 day
[3] = 75 mg/kg, 72 h, dose level High, time 3 day
[4] = 75 mg/kg, 120 h, dose level High, time 5 day
[5] = […], 72 h, dose 7.5 mg/Kg, dose level Low, time 3 day
[6] = […], 120 h, dose 7.5 mg/Kg, dose level Low, time 5 day

## COc1ccc(C2C(=O)c3ccccc3C2=O)cc1 [ANISINDIONE]
[1]
  BASOPHIL: 0%
  EOSINOPHIL: 0%
  ERYTHROCYTE COUNT: 6.19 x10E6/uL
  HEMATOCRIT: 36.94%
  HEMOGLOBIN: 14.58 G/DL
  LEUKOCYTE COUNT: 11.54 x10E3/uL
  LYMPHOCYTE: 84.8%
  MEAN CORPUSCULAR HEMOGLOBIN: 23.58 pg
  MEAN CORPUSCULAR HEMOGLOBIN CONCENTRATION: 39.44 G/DL
  MEAN CORPUSCULAR VOLUME: 59.76 fL
  MONOCYTE: 1.4%
  NEUTROPHIL: 13.8%
  PLATELET COUNT: 1068.8 x10E3/uL
  ALANINE AMINOTRANSFERASE: 38.17 u/L
  ALBUMIN: 3.88 G/DL
  ALKALINE PHOSPHATASE: 391.33 u/L
  ASPARTATE AMINOTRANSFERASE: 69.83 u/L
  BLOOD UREA NITROGEN: 15 mg/dL
  CHLORIDE: 104.17 MEQ/L
  CHOLESTEROL: 72.17 mg/dL
  CREATINE PHOSPHOKINASE: 174.33 u/L
  CREATININE: 0.58 mg/dL
  GLUCOSE: 192.67 mg/dL
  PHOSPHORUS: 10.52 mg/dL
  POTASSIUM: 6.8 MEQ/L
  SODIUM: 149.67 MEQ/L
  TOTAL BILIRUBIN: 0.78 mg/dL
  TOTAL PROTEIN: 6.28 G/DL
[2]
  BASOPHIL: 0%
  EOSINOPHIL: 0.17%
  ERYTHROCYTE COUNT: 6.72 x10E6/uL
  HEMATOCRIT: 40.02%
  HEMOGLOBIN: 15.83 G/DL
  LEUKOCYTE COUNT: 9.5 x10E3/uL
  LYMPHOCYTE: 87.17%
  MEAN CORPUSCULAR HEMOGLOBIN: 23.57 pg
  MEAN CORPUSCULAR HEMOGLOBIN CONCENTRATION: 39.62 G/DL
  MEAN CORPUSCULAR VOLUME: 59.55 fL
  MONOCYTE: 1.67%
  NEUTROPHIL: 11%
  PLATELET COUNT: 1053.67 x10E3/uL
  ALANINE AMINOTRANSFERASE: 26.33 u/L
  ALBUMIN: 4.02 G/DL
  ALKALINE PHOSPHATASE: 316.67 u/L
  ASPARTATE AMINOTRANSFERASE: 61.33 u/L
  BLOOD UREA NITROGEN: 18.67 mg/dL
  CHLORIDE: 108 MEQ/L
  CHOLESTEROL: 65.17 mg/dL
  CREATINE PHOSPHOKINASE: 161.17 u/L
  CREATININE: 0.75 mg/dL
  GLUCOSE: 177.33 mg/dL
  PHOSPHORUS: 9.72 mg/dL
  POTASSIUM: 6.18 MEQ/L
  SODIUM: 150.5 MEQ/L
  TOTAL BILIRUBIN: 0.68 mg/dL
  TOTAL PROTEIN: 6.55 G/DL
[3]
  BASOPHIL: 0%
  EOSINOPHIL: 0.33%
  ERYTHROCYTE COUNT: 6.08 x10E6/uL
  HEMATOCRIT: 36.9%
  HEMOGLOBIN: 14.87 G/DL
  LEUKOCYTE COUNT: 12.97 x10E3/uL
  LYMPHOCYTE: 73.67%
  MEAN CORPUSCULAR HEMOGLOBIN: 24.43 pg
  MEAN CORPUSCULAR HEMOGLOBIN CONCENTRATION: 40.3 G/DL
  MEAN CORPUSCULAR VOLUME: 60.63 fL
  MONOCYTE: 4.67%
  NEUTROPHIL: 21.33%
  PLATELET COUNT: 1074.33 x10E3/uL
  ALANINE AMINOTRANSFERASE: 32.33 u/L
  ALBUMIN: 3.7 G/DL
  ALKALINE PHOSPHATASE: 312.67 u/L
  ASPARTATE AMINOTRANSFERASE: 70.67 u/L
  BLOOD UREA NITROGEN: 16.67 mg/dL
  CHLORIDE: 102.67 MEQ/L
  CHOLESTEROL: 62.67 mg/dL
  CREATINE PHOSPHOKINASE: 163 u/L
  CREATININE: 0.7 mg/dL
  GLUCOSE: 161.33 mg/dL
  PHOSPHORUS: 10.17 mg/dL
  POTASSIUM: 6.4 MEQ/L
  SODIUM: 147 MEQ/L
  TOTAL BILIRUBIN: 0.57 mg/dL
  TOTAL PROTEIN: 5.87 G/DL
[4]
  BASOPHIL: 0%
  EOSINOPHIL: 0.5%
  ERYTHROCYTE COUNT: 6.19 x10E6/uL
  HEMATOCRIT: 36.1%
  HEMOGLOBIN: 14.4 G/DL
  LEUKOCYTE COUNT: 13.5 x10E3/uL
  LYMPHOCYTE: 85.5%
  MEAN CORPUSCULAR HEMOGLOBIN: 23.25 pg
  MEAN CORPUSCULAR HEMOGLOBIN CONCENTRATION: 39.9 G/DL
  MEAN CORPUSCULAR VOLUME: 58.3 fL
  MONOCYTE: 1.5%
  NEUTROPHIL: 12.5%
  PLATELET COUNT: 1096 x10E3/uL
  ALANINE AMINOTRANSFERASE: 36.5 u/L
  ALBUMIN: 3.75 G/DL
  ALKALINE PHOSPHATASE: 318 u/L
  ASPARTATE AMINOTRANSFERASE: 61.5 u/L
  BLOOD UREA NITROGEN: 14 mg/dL
  CHLORIDE: 104 MEQ/L
  CHOLESTEROL: 40.5 mg/dL
  CREATINE PHOSPHOKINASE: 138.5 u/L
  CREATININE: 0.55 mg/dL
  GLUCOSE: 161 mg/dL
  PHOSPHORUS: 10.3 mg/dL
  POTASSIUM: 6.15 MEQ/L
  SODIUM: 150 MEQ/L
  TOTAL BILIRUBIN: 0.55 mg/dL
  TOTAL PROTEIN: 6.2 G/DL
[5]
  BASOPHIL: 0%
  EOSINOPHIL: 1%
  ERYTHROCYTE COUNT: 6.37 x10E6/uL
  HEMATOCRIT: 38.8%
  HEMOGLOBIN: 15.33 G/DL
  LEUKOCYTE COUNT: 10.33 x10E3/uL
  LYMPHOCYTE: 83.67%
  MEAN CORPUSCULAR HEMOGLOBIN: 24.07 pg
  MEAN CORPUSCULAR HEMOGLOBIN CONCENTRATION: 39.53 G/DL
  MEAN CORPUSCULAR VOLUME: 60.9 fL
  MONOCYTE: 3.33%
  NEUTROPHIL: 12%
  PLATELET COUNT: 1127.67 x10E3/uL
  ALANINE AMINOTRANSFERASE: 31.33 u/L
  ALBUMIN: 3.87 G/DL
  ALKALINE PHOSPHATASE: 294.67 u/L
  ASPARTATE AMINOTRANSFERASE: 62.33 u/L
  BLOOD UREA NITROGEN: 14.33 mg/dL
  CHLORIDE: 103.67 MEQ/L
  CHOLESTEROL: 76 mg/dL
  CREATINE PHOSPHOKINASE: 156 u/L
  CREATININE: 0.7 mg/dL
  GLUCOSE: 185.67 mg/dL
  PHOSPHORUS: 12.2 mg/dL
  POTASSIUM: 7.33 MEQ/L
  SODIUM: 149.67 MEQ/L
  TOTAL BILIRUBIN: 0.53 mg/dL
  TOTAL PROTEIN: 6.23 G/DL
[6]
  BASOPHIL: 0%
  EOSINOPHIL: 0%
  ERYTHROCYTE COUNT: 6.33 x10E6/uL
  HEMATOCRIT: 38.27%
  HEMOGLOBIN: 15.1 G/DL
  LEUKOCYTE COUNT: 12.9 x10E3/uL
  LYMPHOCYTE: 81.33%
  MEAN CORPUSCULAR HEMOGLOBIN: 23.87 pg
  MEAN CORPUSCULAR HEMOGLOBIN CONCENTRATION: 39.47 G/DL
  MEAN CORPUSCULAR VOLUME: 60.5 fL
  MONOCYTE: 2.33%
  NEUTROPHIL: 16.33%
  PLATELET COUNT: 999.67 x10E3/uL
  ALANINE AMINOTRANSFERASE: 37 u/L
  ALBUMIN: 3.87 G/DL
  ALKALINE PHOSPHATASE: 349.67 u/L
  ASPARTATE AMINOTRANSFERASE: 67.67 u/L
  BLOOD UREA NITROGEN: 14 mg/dL
  CHLORIDE: 104 MEQ/L
  CHOLESTEROL: 70.33 mg/dL
  CREATINE PHOSPHOKINASE: 150.33 u/L
  CREATININE: 0.7 mg/dL
  GLUCOSE: 172 mg/dL
  PHOSPHORUS: 10.37 mg/dL
  POTASSIUM: 6.23 MEQ/L
  SODIUM: 149.67 MEQ/L
  TOTAL BILIRUBIN: 0.57 mg/dL
  TOTAL PROTEIN: 6.2 G/DL
